Laboratory results reported in ChEMBL document CHEMBL1201862, “PubChem BioAssay data set” (2004).
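Briefly, cells in 96-well plates were exposed to five compound concentrations for 48 h, and endpoints were estimated by linear interpolation. The concentration for 50% growth inhibition is given as GI50.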 Activity calls are given as the source filed them. Rule as the data show it: active = GI50 up to about 1.1 µM and inactive = higher.

Key:
Assay in all cases: inhibition of tumour cell growth, NCI panel, 48 h
[1] = system: 786-0
[2] = system: A498
[3] = system: A549
[4] = system: ACHN
[5] = system: CAKI-1
[6] = system: CCRF-CEM
[7] = system: COLO 205
[8] = system: DLD-1
[9] = system: DMS-114
[10] = system: DMS-273
[11] = system: EKVX
[12] = system: HCC 2998
[13] = system: HCT-15
[14] = system: HOP-18
[15] = system: HOP-62
[16] = system: HT-29
[17] = system: IGROV-1
[18] = system: K562
[19] = system: KM-20L2
[20] = system: KM12
[21] = system: LOX IMVI
[22] = system: LXFL 529
[23] = system: M14
[24] = system: M19-MEL
[25] = system: MOLT-4
[26] = system: Malme-3M
[27] = system: NCI-H23
[28] = system: NCI-H460
[29] = system: OVCAR-3
[30] = system: OVCAR-4
[31] = system: OVCAR-5
[32] = system: OVCAR-8
[33] = system: RPMI-8226
[34] = system: RXF 393
[35] = system: SF-268
[36] = system: SF-295
[37] = system: SF-539
[38] = system: SK-MEL-28
[39] = system: SK-MEL-2
[40] = system: SK-MEL-5
[41] = system: SK-OV-3
[42] = system: SN12C
[43] = system: SNB-19
[44] = system: SNB-75
[45] = system: SNB-78
[46] = system: SW-620
[47] = system: TK-10
[48] = system: U-251
[49] = system: UACC-257
[50] = system: UACC-62
[51] = system: UO-31
[52] = system: XF498
[53] = system: HCT-116
[54] = system: HL-60
[55] = system: HOP-92
[56] = system: NCI-H522
[57] = system: SR

In the case of `CC[P+]1(CC)CCCC1`, the GI50 [1] is reported as > 100 µM (inactive), the GI50 [2] is reported as > 10 µM (inactive) and the GI50 [3] is reported as > 100 µM (inactive). The GI50 [4] was > 100 µM (inactive), the GI50 [5] was > 100 µM (inactive) and the GI50 [6] was > 100 µM (inactive). The GI50 [7] was > 100 µM (inactive), the GI50 [8] was > 100 µM (inactive) and the GI50 [9] was > 100 µM (inactive). For the same molecule, the GI50 [10] was > 100 µM (inactive), the GI50 [11] was > 100 µM (inactive) and the GI50 [12] was > 100 µM (inactive). For the same molecule, the GI50 [13] was over 100 µM, the GI50 [14] was > 100 µM (inactive) and the GI50 [15] was > 100 µM (inactive). The GI50 [16] was > 100 µM (inactive), the GI50 [17] was > 100 µM (inactive) and the GI50 [18] was > 100 µM (inactive). The GI50 [19] was > 100 µM (inactive), the GI50 [20] was > 100 µM (inactive) and the GI50 [21] was > 100 µM (inactive). For the same molecule, the GI50 [22] was > 100 µM (inactive), the GI50 [23] was > 100 µM (inactive) and the GI50 [24] was > 100 µM (inactive). For the same molecule, the GI50 [25] was > 100 µM (inactive), the GI50 [26] was > 100 µM (inactive) and the GI50 [27] was > 100 µM (inactive). The GI50 [28] was > 100 µM (inactive), the GI50 [29] was > 100 µM (inactive) and the GI50 [30] was > 100 µM (inactive). The GI50 [31] was > 100 µM (inactive), the GI50 [32] was > 100 µM (inactive) and the GI50 [33] was > 100 µM (inactive). For the same molecule, the GI50 [34] was > 100 µM (inactive), the GI50 [35] was > 100 µM (inactive) and the GI50 [36] was > 100 µM (inactive). The GI50 [37] was > 100 µM (inactive), the GI50 [38] was > 100 µM (inactive) and the GI50 [39] was > 100 µM (inactive). For the same molecule, the GI50 [40] was > 100 µM (inactive), the GI50 [41] was > 100 µM (inactive) and the GI50 [42] was > 100 µM (inactive). For the same molecule, the GI50 [43] was > 100 µM (inactive), the GI50 [44] was > 100 µM (inactive) and the GI50 [45] was > 100 µM (inactive). For the same molecule, the GI50 [46] was > 100 µM (inactive), the GI50 [47] was > 100 µM (inactive) and the GI50 [48] was > 100 µM (inactive). For the same molecule, the GI50 [49] was > 100 µM (inactive), the GI50 [50] was > 100 µM (inactive) and the GI50 [51] was > 100 µM (inactive). The GI50 [52] was > 100 µM (inactive).

For `C/C(=N/NS(=O)(=O)c1c(C)cc(C)cc1C)c1cccc[n+]1[O-]`, the GI50 [1] was > 100 µM (inactive), the GI50 [2] was > 100 µM (inactive) and the GI50 [3] was > 100 µM (inactive). The GI50 [4] was > 100 µM (inactive), the GI50 [5] was > 100 µM (inactive) and the GI50 [6] was > 100 µM (inactive). For the same molecule, the GI50 [8] was > 100 µM (inactive), the GI50 [9] was > 100 µM (inactive) and the GI50 [10] was > 100 µM (inactive). For the same molecule, the GI50 [11] was > 100 µM (inactive), the GI50 [12] was > 100 µM (inactive) and the GI50 [53] was > 100 µM (inactive). The GI50 [13] was over 100 µM, the GI50 [54] was > 100 µM (inactive) and the GI50 [14] was > 100 µM (inactive). For the same molecule, the GI50 [15] was > 100 µM (inactive), the GI50 [55] was > 100 µM (inactive) and the GI50 [16] was > 100 µM (inactive). The GI50 [17] was > 100 µM (inactive), the GI50 [18] was > 100 µM (inactive) and the GI50 [19] was > 100 µM (inactive). The GI50 [20] was > 100 µM (inactive), the GI50 [22] was > 100 µM (inactive) and the GI50 [23] was > 100 µM (inactive). For the same molecule, the GI50 [24] was > 100 µM (inactive), the GI50 [25] was > 100 µM (inactive) and the GI50 [27] was > 100 µM (inactive). For the same molecule, the GI50 [28] was > 100 µM (inactive), the GI50 [56] was 83.4 µM (inactive) and the GI50 [29] was > 100 µM (inactive). For the same molecule, the GI50 [30] was > 100 µM (inactive), the GI50 [31] was > 100 µM (inactive) and the GI50 [32] was > 100 µM (inactive). For the same molecule, the GI50 [33] was > 100 µM (inactive), the GI50 [35] was > 100 µM (inactive) and the GI50 [36] was > 100 µM (inactive). For the same molecule, the GI50 [37] was > 100 µM (inactive), the GI50 [38] was > 100 µM (inactive) and the GI50 [40] was > 100 µM (inactive). For the same molecule, the GI50 [41] was > 100 µM (inactive), the GI50 [42] was > 100 µM (inactive) and the GI50 [43] was > 100 µM (inactive). The GI50 [44] was 76.2 µM (inactive), the GI50 [45] was > 100 µM (inactive) and the GI50 [57] was > 100 µM (inactive). For the same molecule, the GI50 [46] was > 100 µM (inactive), the GI50 [47] was > 100 µM (inactive) and the GI50 [48] was > 100 µM (inactive). For the same molecule, the GI50 [49] was > 100 µM (inactive), the GI50 [50] was > 100 µM (inactive) and the GI50 [51] was > 100 µM (inactive). The GI50 [52] was > 100 µM (inactive).
